Measured values as given in ChEMBL document CHEMBL4007504, “Docking, synthesis and antimalarial activity of novel 4-anilinoquinoline derivatives” (Bioorg Med Chem Lett, 2017).

Key:
Plasmodium berghei = assay: Antimalarial activity against chloroquine-sensitive Plasmodium berghei infected in Swiss albino mouse assessed as chemosuppression at 200 mg/kg, po qd administered for 4 days by peter's test relative to control; format: functional; conditions: 96 h
Mus musculus = assay: Toxicity in Swiss albino mouse at 2000 mg/kg, po; format: organism-based; conditions: in vivo
Plasmodium falciparum = assay: Antimalarial activity against chloroquine-resistant Plasmodium falciparum W2 infected in human erythrocytes assessed as parasite growth inhibition after 48 hrs by YOYO1 probe-based flow cytometric method; format: functional, cell-based; conditions: W2, 48 h
Ferriprotoporphyrin IX = assay: Binding affinity to haematin assessed as inhibition of NP40-mediated beta-haematin formation after 4 hrs by pyridine-ferrochrome method

SMILES | inhibition in vivo at 200 mg/kg (Plasmodium berghei) [%] | Activity (Mus musculus) | IC50 (Plasmodium falciparum) [nM] | IC50 (Ferriprotoporphyrin IX) [nM]
Clc1ccc2c(Nc3ccc(Nc4nc(Cl)nc(N5CCCCC5)n4)cc3)ccnc2c1 | 94.1 | Non-Toxic | 118 | 20600
Nc1ccc(Nc2ccnc3cc(Cl)ccc23)cc1 | 85.9 | Non-Toxic | 807 | 32500
C[C@@H]1CC[C@H]2[C@@H](C)C(=O)O[C@@H]3O[C@@]4(C)CC[C@@H]1[C@]32OO4 [ARTEMISININ] |  |  | 15 | 
CCN(CC)CCCC(C)Nc1ccnc2cc(Cl)ccc12 (stereo not drawn) [CHLOROQUINE] | 83 |  |  | 27200
CN(C)c1nc(Cl)nc(Nc2ccc(Nc3ccnc4cc(Cl)ccc34)cc2)n1 | 95.2 | Non-Toxic | 380 | 29700
CC(C)N(c1nc(Cl)nc(Nc2ccc(Nc3ccnc4cc(Cl)ccc34)cc2)n1)C(C)C | 95.5 | Non-Toxic | 902 | > 500000
CCN(CC)c1nc(Cl)nc(Nc2ccc(Nc3ccnc4cc(Cl)ccc34)cc2)n1 | 95.5 | Non-Toxic | 268 | 21600
Clc1ccc2c(Nc3ccc(Nc4nc(Cl)nc(N5CCCC5)n4)cc3)ccnc2c1 | 97 | Non-Toxic | 119 | 28100
CCCN(CCC)c1nc(Cl)nc(Nc2ccc(Nc3ccnc4cc(Cl)ccc34)cc2)n1 | 91.5 | Non-Toxic | 8 | 18600
Clc1ccc2c(Nc3ccc(Nc4nc(Cl)nc(N5CCOCC5)n4)cc3)ccnc2c1 | 97 | Non-Toxic | 138 | 21100
CN(c1ccccc1)c1nc(Cl)nc(Nc2ccc(Nc3ccnc4cc(Cl)ccc34)cc2)n1 | 91.1 | Non-Toxic | 269 | 23700
COc1ccccc1Nc1nc(Cl)nc(Nc2ccc(Nc3ccnc4cc(Cl)ccc34)cc2)n1 | 94.8 | Non-Toxic | 145 | 21000
O=[N+]([O-])c1ccc(Nc2nc(Cl)nc(Nc3ccc(Nc4ccnc5cc(Cl)ccc45)cc3)n2)cc1 | 97.4 | Non-Toxic | 145 | 23000
Clc1ccc2c(Nc3ccc(Nc4nc(Cl)nc(N5CCNCC5)n4)cc3)ccnc2c1 | 94.8 | Non-Toxic | 167 | 23700
CCN(c1ccccc1)c1nc(Cl)nc(Nc2ccc(Nc3ccnc4cc(Cl)ccc34)cc2)n1 | 97 | Non-Toxic | 220 | 29200
Clc1ccc2c(Nc3ccc(Nc4nc(Cl)nc(N(c5ccccc5)c5ccccc5)n4)cc3)ccnc2c1 | 97.4 | Non-Toxic | 255 | 24900
Clc1ccc2c(Nc3ccc(Nc4nc(Cl)nc(NCc5ccccc5)n4)cc3)ccnc2c1 | 97 | Non-Toxic | 123 | 21800
